In patent US11345957B2, “Methods of treating glioblastoma in a subject informed by exosomal RNA signatures” (Exosome Diagnostics, Inc., priority 2017, dated 2022):

System: patients diagnosed with glioblastoma mutliforme (GBM)
Assay: Response of GBM patients to Dacomitinib treatment
Assay type: in vivo, human
Description: Serum samples were collected from 14 patients diagnosed with glioblastoma mutliforme (GBM) before the administration of Dacomitinib (pre-treatment samples) and 1 month after the initiation of Dacomitinib treatment (post-treatment samples). Of the 14 patients, 7 were deemed to be “responders” to the drug and stayed on the drug for more than 6 months.

SMILES: COc1cc2ncnc(Nc3ccc(F)c(Cl)c3)c2cc1NC(=O)/C=C/CN1CCCCC1 [Dacomitinib]
- time responders stayed on the drug (7 responders of 14 GBM patients): more than 6 months
- patients deemed to be "responders" to the drug (of the 14 patients diagnosed with GBM): 7
